Assay results taken from the METLIN SMRT retention time set (Domingo-Almenara et al. 2019).

Experiment: gradient 5% acetonitrile 3 min, to 50% in 2 min, to 85% in 15 min, held 3 min, 100 µL/min
Conditions: column: Zorbax Extend-C18 2.1 x 50 mm; eluents: water / acetonitrile, 0.1% formic acid
Outline: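 Retention times come from adduct peaks that were picked computationally and then checked by hand. The standards, pure and pooled in mixtures of ~100 molecules, were run on a Zorbax Extend-C18 column (2.1 × 50 mm, 1.8 μm) at 100 μL/min with water and acetonitrile, each with 0.1% formic acid. Detection was by quadrupole time-of-flight mass spectrometry in positive and negative ionization mode, with a dead volume of 40 μL and a dwell volume of 900 μL.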

| Compound | RP-LC retention time [s] |
| --- | --- |
| CN(CC1(C)CCOCC1)S(=O)(=O)c1ccc(C(F)(F)F)cc1 | 997 |
| O=C1NC(c2cccc([N+](=O)[O-])c2)=CCN1c1ccccc1O | 837 |
| CN(C)c1ccc(CNc2ccc(-c3nc(-c4ccc(F)cc4)no3)cn2)cc1 | 889 |
| CN1C(=O)[C@H]2CN(Cc3ccc(Cl)cc3)C[C@H]2C1=O | 598 |
| CCCCn1nc2ccc(S(=O)(=O)N3CCOCC3)cn2c1=O | 739 |
| O=C1NC(c2ccccc2)(C(F)(F)F)SC2=NCCCN12 (stereo not drawn) | 584 |
| CC(C)NC(=O)c1ccc(OCC2CCCN(C(=O)c3ccc(F)cc3Cl)C2)cc1 (stereo not drawn) | 887 |
| COc1ccc(NS(=O)(=O)c2c(C)c(-c3nnc(C4CCC4)o3)n(C)c2C)c(C)c1 | 929 |
| CN(C(=O)c1ccc2c(c1)OCO2)C1CCc2nn(CC3CC3)c(=O)n2CC1 (stereo not drawn) | 670 |
| COc1cc(Cl)c(CC2C(=O)Nc3ccccc32)cc1OC (stereo not drawn) | 900 |
| O=C1CC(c2nc(-c3cccc(C(F)(F)F)c3)no2)CN1c1ccc2c(c1)OCO2 (stereo not drawn) | 1020 |
| O=C(CN1C(=O)CCCc2cc(S(=O)(=O)N3CCOCC3)ccc21)N1CCc2ccccc2C1 | 786 |
| CC(C)n1c(=O)sc2cc(S(=O)(=O)N3CCC(C(=O)NCCN4CCCC4)CC3)ccc21 | 648 |
| O=C(Nc1ccc(N2CCOCC2)cc1)C1(CCO)CCN(c2ncccn2)C1 (stereo not drawn) | 549 |
| O=C1NC2=C(C(=O)CCC2)C(c2cccc([N+](=O)[O-])c2)N1 (stereo not drawn) | 606 |
| CCOC(=O)c1c(C)[nH]c(C(=O)N2CCC(CC(=O)N3CCOCC3)CC2)c1C | 675 |
| CS(=O)(=O)N1CCCC(c2nnc(-c3ccccc3F)s2)C1 (stereo not drawn) | 757 |
| CCOc1ccc(C(=O)N2CCC3(CC2)c2nccn2-c2ccccc2CN3C)cc1 | 632 |

| Compound | RP-LC retention time [s] |
| --- | --- |
| CCOc1ccc(CC(=O)N2CCCC2c2nc(-c3ccc(OC)c(OC)c3)no2)cc1OCC (stereo not drawn) | 925 |
| COC[C@@H]1CN(c2cnccn2)C[C@H]1C(=O)NCC1CC1 | 594 |
| Cc1cnc(C(=O)NC2C[C@H]3CC[C@@H](C2)N3C(=O)c2cnc(C)cn2)cn1 (stereo partly drawn) | 584 |
| Cc1cnn(CC(=O)N2CCCCCCNC(=O)[C@@H]3CCCC[C@@H]32)c1 | 716 |
| Cn1nccc1C(=O)N1CC2CN(S(=O)(=O)c3cccc(F)c3)CC(C1)O2 | 693 |
| COC1(C2=NCCN2)COc2ccccc2O1 (stereo not drawn) | 581 |
| Fc1ccc(Nc2c(-c3ccccc3)nc3cnccn23)cc1 | 844 |
| O=C(c1ccncc1)N1CCC2(CC1)N=C(c1ccc(Cl)cc1)NO2 | 625 |
| O=C(c1nnc(-c2ccc(S(=O)(=O)N3CCOCC3)cc2)o1)N1CCCC1 | 734 |
| Cc1cc(C)cc(C(=O)N2CCN(c3nc(C)cc(N4CCOCC4)n3)CC2)c1 | 653 |
| Cc1ccccc1CNC(=O)C1(C)CCCN(C(=O)Nc2ccccc2Br)C1 (stereo not drawn) | 1020 |
| O=C(c1ccc(Cl)cc1Cl)N1CC(c2nc(C3CC3)no2)C1 | 818 |
| Cc1ccc(-c2nc(C3CC(=O)N(C4CCCCC4)C3)no2)cn1 (stereo not drawn) | 771 |
| Cc1sc(C)c(S(=O)(=O)NCC2CCCO2)c1-c1cc(C(F)(F)F)on1 (stereo not drawn) | 1020 |
| COc1ccc(NC(=O)NC2CCN(C(=O)N3C[C@H]4C[C@H](C3)[C@H]3CCCC(=O)N3C4)CC2)cc1 | 652 |
| Fc1cccc(Cn2cc(-c3noc(-c4ccc5cc[nH]c5c4)n3)nn2)c1 | 996 |
| O=c1n(Cc2cc(F)cc(F)c2)nc2ccc(S(=O)(=O)N3CCOCC3)cn12 | 816 |
| CC(C)n1cc(S(=O)(=O)N2CCN(c3ccccc3)CC2)c2cccnc21 | 1070 |

The next lines start with the values.

| RP-LC retention time [s] | Compound |
| --- | --- |
| 1020 | CCc1nc2cc(-c3noc(Cc4c[nH]c5ccccc45)n3)ccc2o1 |
| 634 | COc1cc(C(=O)Nc2ccc(-c3cn4ccc(C)nc4n3)cc2)cc(OC)c1OC |
| 684 | CC(=O)Nc1ccc(C(=O)NCc2ccc(C)o2)c(N2CCOCC2)c1 |
| 816 | Cc1noc(C)c1S(=O)(=O)N1CCC[C@H](n2c(=O)n(C)c3cccnc32)C1 |
| 806 | Cc1cc(NC(=O)c2nc3ccccc3s2)n(C(C)C)n1 |
| 721 | COCCN1C(=O)CCc2cc(NC(=O)c3ccc(Br)o3)ccc21 |
| 832 | COc1ccc(-c2nc3nccc(-c4ccsc4)n3n2)c(OC)c1 |
| 694 | Cc1cc(C(=O)Nc2ccc(Cl)cn2)c2ccccc2n1 |
| 726 | O=C(CCS(=O)(=O)c1ccc(Cl)cc1)Nc1nnc(Cc2ccc3c(c2)OCO3)o1 |
| 660 | CCN(Cc1ccccc1)C(=O)Cn1c(N2CCCC2)nc(C)cc1=O |
| 725 | O=C(CSc1ccc(N2CCOCC2)nn1)Nc1ccc(Cl)cc1 |
| 601 | Cc1cccc(CC(=O)NCCCN2CCN(c3ccccc3)CC2)c1 |
| 1070 | Cc1ccc(S(=O)(=O)Cc2ccc(-c3nc(-c4ccc5oc(C)nc5c4)no3)cc2)cc1 |
| 653 | CN1C(=O)CCc2cc(NC(=O)c3ccoc3)ccc21 |
| 860 | CC(C)CCNC(=O)Cn1cccc(-c2nc(-c3ccc(F)cc3)no2)c1=O |
| 676 | Cc1nn2c(CNC(=O)C(C)Oc3cccc(Cl)c3)c(C)nc2s1 (stereo not drawn) |
| 672 | CC1(C(=O)NCc2ccc3c(c2)OCO3)Oc2cccnc2NC1=O (stereo not drawn) |
| 564 | Cc1nc(-c2cccs2)sc1C(=O)NCCn1nc(-n2ccnc2C)ccc1=O |
| 933 | CCOc1ccccc1NC(=O)Cn1c(=O)n(-c2ccc(F)cc2)c(=O)c2c1cc(C)n2C |
| 909 | Cc1nnc(-c2nnc(NCc3ccccc3Cl)c3ccccc23)o1 |
| 1100 | O=c1c2ccccc2n(Cc2nc(-c3ccc(C(F)(F)F)cc3)no2)c(=O)n1CC1CCCO1 (stereo not drawn) |
| 639 | COc1ccc(N2CCN(C(=O)Cn3nc4nc(N5CCCC5)ccn4c3=O)CC2)cc1 |
| 878 | Cc1cc(C(=O)NCc2ccc(Cl)cc2)n(-c2ccccc2)n1 |
| 1380 | Cc1nn(-c2nc(-c3ccc(Cl)cc3)cs2)c(C)c1CC(=O)Nc1cccc(C(F)(F)F)c1 |
| 805 | CCN1c2ccccc2C(=O)NC12CCN(C(=O)c1cccc(C)c1)CC2 |
| 1060 | COC(=O)c1c(NC(=O)CSc2nnnn2-c2ccccc2OC)sc2c1CCC2 |

| RP-LC retention time [s] | Compound |
| --- | --- |
| 918 | CCCS(=O)(=O)c1nc2ccc(NS(=O)(=O)c3cccc(F)c3)cc2s1 |
| 856 | COc1ccc(-c2cc(C(=O)N3CCCC3c3c(C)noc3C)on2)cc1 (stereo not drawn) |
| 623 | Cc1ccc2cccc(Oc3ncnc(N)c3[N+](=O)[O-])c2n1 |
| 703 | Cc1ccc(Cc2nc(-c3ccc4c(c3)nnn4CCN3CCOCC3)no2)cc1 |
| 939 | Cc1ccccc1NC(=O)c1c(NC(=O)CCC(=O)O)sc2c1CCCC2 |
| 837 | CCOc1ccc(C(=O)N2CCc3c(c(-c4nc(C5CC5)no4)nn3C)C2)cc1 |
| 1220 | Cc1nc2nc(-c3ccc(C(C)(C)C)cc3)nn2c(C)c1CC(=O)Nc1ccc(Br)cc1 |
| 631 | CC(C)c1ccc2nc3ccc(C(=O)NCCN(C)C)cn3c(=O)c2c1 |
| 850 | O=C(NC1CCCc2c1[nH]c1c(Cl)cccc21)c1ccncc1 (stereo not drawn) |
| 1000 | O=C(NCc1ccc(Cl)cc1)c1c(O)c2cccnc2[nH]c1=O |
| 672 | COCCCNCc1c(C(=O)O)c(C)n(Cc2ccc(Cl)cc2)c1C |
| 675 | CCOC(=O)CCNC(=O)NCc1nnnn1-c1ccc(OCC)cc1 |
| 739 | COc1ccccc1CCNC(=O)CSc1nc(=O)n(Cc2ccco2)c2c1CCC2 |
| 919 | CCc1noc(NC(C)=O)c1-c1ccc(C)c(S(=O)(=O)N2CCN(c3ccc(OC)cc3)CC2)c1 |
| 839 | O=C(C1COc2ccccc2O1)N1CCN(c2cc(-c3cccs3)[nH]n2)CC1 (stereo not drawn) |
| 975 | CCn1ccc2sc(C)c(C(=O)NC(C)c3ccc(C)cc3C)c2c1=O (stereo not drawn) |
| 1050 | Cc1cc(C)cc(NC(=O)N2CCc3cn(C)c4cccc(c34)C2)c1 |
| 655 | Cc1ccc(CNC(=O)c2cc3n(n2)CCCN(Cc2ccc(Cl)cc2)C3=O)o1 |
| 898 | COC(=O)C1=CN(c2cc(F)ccc2C)c2ccc(F)cc2S1(=O)=O |
| 1050 | COc1nc2ccccc2nc1N1CCCC(C(=O)NC(C)c2ccccc2)C1 (stereo not drawn) |
| 592 | O=C(CCCN1C(=O)c2cccnc2Sc2ccccc21)N1CCN(c2ccccn2)CC1 |
| 778 | CCCC(=O)N1CCN(c2ccc(=O)n(-c3ccc(Cl)cc3)n2)CC1 |
| 929 | CCc1nc(-c2ccc(S(=O)(=O)N3CCC(C(=O)NCc4ccc5c(c4)OCO5)CC3)cc2)no1 |
| 836 | Cc1cccc(NC(=O)N2CCC(n3cnc4ccc(C)cc4c3=O)CC2)c1 |
| 956 | COc1ccc(Cl)cc1C(=O)N1CCN(c2ccc(-c3nc(C)c(C)s3)cn2)CC1 |
| 572 | O=C(NCCN1CCN(C(=O)Cn2ccc3ccccc32)CC1)c1cccs1 |
